# According to article PMC12348470, “Amino Acid Substitutions in Bacteriocin Lactolisterin BU Reveal Functional Domains Involved in Biological Activity Against Staphylococcus aureus” (Molecules, 2025):
# “And” between values parts separate entries of the source, which are not always exact repeats. Equal entries are not always repeated. Where two headings read alike, the source gives them in different places. Ends that are not written are not given here.
# What was measured:
# Caco-2 cells = system: Caco-2 cells
# Description: Caco-2 cells were used in the toxicity assay to model the human intestinal epithelium, as they closely mimic the morphology and function of enterocytes. This makes them a relevant in vitro system for evaluating the potential cytotoxic effects of bacteriocins upon oral exposure or gastrointestinal application.
# The cytotoxic effects of peptides were evaluated on human colorectal adenocarcinoma Caco-2 cells (ATCC HTB-37). The cells were cultured in Dulbecco’s Modified Eagle Medium (DMEM, high glucose; Gibco, Thermo Fisher Scientific) supplemented with 10% fetal bovine serum (FBS) and 1% penicillin–streptomycin. The cells were maintained at 37 °C in a humidified incubator with 5% CO2 and subcultured twice weekly, according to Popovic et al..
# Cytotoxic effects of peptides on Caco-2 cells were assessed using a lactate dehydrogenase (LDH) release assay according to the manufacturer’s protocol (Lactate Dehydrogenase Cytotoxicity Assay Kit (Thermo Fisher Scientific, Waltham, MA, USA)). The Caco-2 cells were seeded in 96-well flat-bottom plates at a density of 2 × 10^4 cells per well and allowed to reach confluency over 48 h at 37 °C and 5% CO2.
# The cells were then incubated for 24 h. Untreated cells (incubated with medium only) served as a negative control, and cells treated with LDH Lysis buffer were used as a positive control.
# Following peptide treatment, 50 µL of cell culture supernatant was transferred from each well into a new 96-well plate. LDH reaction mixture (50 µL) was added to each well and incubated at room temperature for 30 min in the dark. The absorbance was measured at 490 nm using a microplate reader.
# Cytotoxicity (%) was calculated using the following formula: Cytotoxicity (%) = Asample − Anegative/Apositive − Anegative × 100
# (§1) The assay was performed in triplicate.
# S. aureus ATCC 25923 [1] = test: Spot-on-the-lawn antimicrobial screening; type: cell-based, Staphylococcus aureus; settings: 5 µL spots at 1000, 500, 250, 125 and 62.5 µg/mL on LB soft agar lawn; overnight, 37 °C
# Description: The antimicrobial activity screening assay of twelve chemically synthesized peptides was evaluated using a spot-on-the-lawn assay against S. aureus ATCC 25923.
# S. aureus ATCC 25923 was grown overnight in LB broth, adjusted to 0.5 McFarland (~1 × 10^8 CFU/mL), and mixed 1:100 into molten soft agar (0.7% agar in LB). Five milliliters of this suspension was overlaid onto LB agar plates and allowed to solidify.
# Peptide stock solutions (1 mg/mL) were serially diluted in sterile water, and 5 µL of each dilution was carefully spotted onto the surface of the inoculated agar. The plates were dried under a laminar flow hood for 15–20 min and incubated overnight at 37 °C. Zones were observed, and their size and clarity were compared.
# clfA = settings: half MIC, 16–18 h, 37 °C, normalised to gmk, duplicate
# Text: (§2) Six virulence-related genes were selected (agrA, clfA, icaR, lukSPV, spa, and hla) to capture a representative profile of quorum sensing regulation (agrA), adhesion (clfA), biofilm repression (icaR), immune evasion (spa), and cytolytic toxin production (lukSPV and hla), providing an exploratory view of how peptide treatment influences the distinct profile of S. aureus pathogenicity.
# (§3) The effect of sub-inhibitory peptide concentrations on S. aureus ATCC 25923 virulence gene expression was evaluated using quantitative real-time PCR (RT-qPCR). […] Untreated bacterial cultures in corresponding media served as controls.
# (§4) Total RNA was extracted using the RNeasy Mini Kit (QIAGEN GmbH, Hilden, Germany). Samples were treated with Dnase I (Thermo Fisher Scientific) to remove genomic DNA contamination. RNA concentration and purity were determined using a NanoDrop spectrophotometer (A260/A280 ratio 1.9–2.1).
# (§5) Complementary DNA (cDNA) synthesis was performed using […] of total RNA and the RevertAid RT Reverse Transcription Kit (Thermo Fisher Scientific) with random hexamer primers, according to the manufacturer’s instructions. Quantitative PCR was performed using FastGen 2x IC Green qPCR Universal (Nippon Genetics) on a LineGene 9600 Plus Real Time thermocycler (Bioer Technology Co., Ltd., Hangzhou, China). Primer sequences (Table S3) for the virulence-related genes agrA, clfA, hla, icaR, lukS-PV, and spa were used. The housekeeping gene gmk (guanylate kinase) was used for normalization.
# (§6) Primer efficiency (90–110%) and specificity were confirmed by melt curve analysis. Relative expression levels were calculated using the ΔΔCt method, as reported by Livak et Schmittgen, comparing treated samples to their corresponding untreated controls in each medium. A log2 fold change ≥1 or ≤−1 was considered biologically significant. All experiments were performed in duplicate.
# agrA = settings: half MIC, 16–18 h, 37 °C, normalised to gmk, duplicate
# Text: as §2, §3, §4, §5, §6
# spa = settings: half MIC, 16–18 h, 37 °C, normalised to gmk, duplicate
# Text: as §2, §3, §4, §5, §6
# hla = settings: half MIC, 16–18 h, 37 °C, normalised to gmk, duplicate
# icaR = test: Virulence gene expression, RT-qPCR; type: cell-based, S. aureus ATCC 25923; settings: half MIC, 16–18 h, 37 °C, normalised to gmk, duplicate
# Description: (§7) Untreated bacterial cultures in corresponding media served as controls.
# (§8) All experiments were performed in duplicate.
# lukSPV = test: Virulence gene expression, RT-qPCR; type: cell-based, S. aureus ATCC 25923; settings: half MIC, 16–18 h, 37 °C, normalised to gmk, duplicate
# Description: as §7, §8
# S. aureus ATCC 25923 [2] = type: cell-based, Staphylococcus aureus
# sheep erythrocytes = test: Hemolysis assay; type: cell-based; settings: for hemolytic activity, in words: 6.25 to 50 µg/mL, sheep erythrocytes, 37 °C, 1 h
# Description: Hemolytic activity of peptides was assessed as described by Dong et al., with some modifications. Fresh defibrinated sheep blood was obtained from the Institute of Virology, Vaccines and Sera “Torlak” (Belgrade, Serbia). Erythrocytes were washed three times with sterile Tris-buffered saline (TBS, 10 mM TRIS-HCl, pH 7.4, 150 mM NaCl) by centrifugation at 800× g for 5 min and resuspended to a final 2% (v/v) erythrocyte suspension in TBS.
# Peptide solutions (0.02 M HCl) were diluted in Tris-buffered saline (TBS, 10 mM TRIS-HCl, pH 7.4, 150 mM NaCl) to final concentrations ranging from 6.25 to 50 µg/mL. In a 96-well flat-bottom plate, 100 µL of peptide solution was mixed with 100 µL of erythrocyte suspension and incubated at 37 °C for 1 h.
# After incubation, the plates were centrifuged at 1000× g for 5 min, and 100 µL of the supernatant was transferred to a flat-bottom 96-well plate. Absorbance was measured at 540 nm using a microplate reader (model BioTek Epoch Microplate Spectrophotometer; Agilent Technologies, Winooski, VT, USA).
# Hemolysis (%) was calculated relative to a negative control (TBS; 0% lysis) and a positive control (0.1% SDS; 100% lysis) using the formula: Hemolysis (%)=Asample−ATBS/ASDS−ATBS×100
# as §1
Sequence,"TI (LC50/MIC), Caco-2 (Caco-2 cells)","zones of inhibition, spot-on-the-lawn assay (S. aureus ATCC 25923 [1])","clfA expression, log2 fold-change vs untreated control (clfA; FBS) [log2 fold change]","clfA expression, log2 fold-change vs untreated control (clfA; LB medium) [log2 fold change]","agrA expression, log2 fold-change vs untreated control (agrA; FBS) [log2 fold change]","agrA expression, log2 fold-change vs untreated control (agrA; LB medium) [log2 fold change]","spa expression, log2 fold-change vs untreated control (spa; FBS) [log2 fold change]","spa expression, log2 fold-change vs untreated control (spa; LB medium)","hla expression, log2 fold-change vs untreated control (hla; FBS) [log2 fold change]","hla expression, log2 fold-change vs untreated control (hla; LB medium) [log2 fold change]","icaR expression, log2 fold-change vs untreated control (icaR; FBS) [log2 fold change]","icaR expression, log2 fold-change vs untreated control (icaR; LB medium) [log2 fold change]","lukSPV expression, log2 fold-change vs untreated control (lukSPV; FBS) [log2 fold change]","lukSPV expression, log2 fold-change vs untreated control (lukSPV; LB medium) [log2 fold change]",MBC (S. aureus ATCC 25923 [2]) [µg/mL],"hemolytic activity, in words (sheep erythrocytes)",Hemolytic activity (%) at 25 µg/mL (sheep erythrocytes; pH 7.4) [%],Hemolytic activity (%) at 50 µg/mL (sheep erythrocytes; pH 7.4) [%]
MWARILGTVAKYGPKAVSWAWQHKWELINMGDLAFRYIQRIWG [Peptide G3A],7.03,comparable to the wild-type LBU peptide,-1.55,0.76,-0.47,-0.93,1.43,2.16 log2 fold change,-0.30,0.60,-1.43,0.06,-1.54,1.77,25,no measurable hemolysis up to 25 µg/mL,,
MWGRILATVAKYGPKAVSWAWQHKWELINMGDLAFRYIQRIWG [Peptide G7A],5.11,comparable to the wild-type LBU peptide,-0.69,-0.59,0.61,-0.32,-0.27,0.37 log2 fold change,0.51,-0.62,1.71,0.10,1.22,-2.88,25,some membrane-disruptive potential at elevated concentrations (50 µg/mL),,
MWGRILGTVAKYAPKAVSWAWQHKWELINMGDLAFRYIQRIWG [Peptide G13A],1.20,comparable to the wild-type LBU peptide,0.64,-0.19,0.82,-0.40,1.69,-0.32 log2 fold change and −0.33 log2 fold change,1.04,-0.11,2.66,0.36,2.49,-2.28,12.5,dose-dependent hemolysis,22.69,28.86
